Experiments:
YAC128 mice = conditions: cited from earlier work
[1] = Stability in mouse liver microsomes; format: in vitro ADME; conditions: 0.5 mg/mL pooled male microsomes, read-out: Intrinsic Clearance (Cl int) Liver Microsomes
Protocol: Memantine (1 μM) was incubated in 0.5 mg/mL of pooled male rat, mouse, or human liver microsomes (obtained commercially), in 0.1 M phosphate buffer at 37 °C. After pre-warming the mixture for 5 min, reactions were initiated by the addition of NADPH (1 mM). Aliquots (80 μL) were taken at 0, 5, 10, 20 and 40 min, and the reaction immediately terminated by adding into 80 μL of acetonitrile containing an analytical internal standard (IS). Samples were centrifuged and the supernatant fractions analyzed by LC-MS/MS with multiple reaction monitoring (MRM). All incubations were performed in duplicate. Testosterone was used as the positive control. The MRM area response ratio of the analyte over IS for Time=0(control) was set to 100%, the relative decrease in MRM area ratio intensity over time against that of the control (percent parent decrease) was used to determine the half-life (t1/2) of memantine in the incubation. Half-life values were calculated from the relationship:
t1/2 (min) = -0.693/λ, where λ is the slope of the Ln concentration vs time curve. The intrinsic clearance (Clint) was calculated as:
Clint = (0.693 x incubation volume (μL))/(t½ (min) x mg of microsomal protein)

human PEPT1 = biological target: T1, human PEPT1 (Homo sapiens, UniProt P46059); experiment: Direct uptake transporter assay, PEPT1; format: in vitro ADME; conditions: for Accumulation in transporter transfected cells: PEPT1-transfected cells; for Accumulation in parental cells: parental CHO cells (PEPT1 line)
T1 sequence (P46059 1-708): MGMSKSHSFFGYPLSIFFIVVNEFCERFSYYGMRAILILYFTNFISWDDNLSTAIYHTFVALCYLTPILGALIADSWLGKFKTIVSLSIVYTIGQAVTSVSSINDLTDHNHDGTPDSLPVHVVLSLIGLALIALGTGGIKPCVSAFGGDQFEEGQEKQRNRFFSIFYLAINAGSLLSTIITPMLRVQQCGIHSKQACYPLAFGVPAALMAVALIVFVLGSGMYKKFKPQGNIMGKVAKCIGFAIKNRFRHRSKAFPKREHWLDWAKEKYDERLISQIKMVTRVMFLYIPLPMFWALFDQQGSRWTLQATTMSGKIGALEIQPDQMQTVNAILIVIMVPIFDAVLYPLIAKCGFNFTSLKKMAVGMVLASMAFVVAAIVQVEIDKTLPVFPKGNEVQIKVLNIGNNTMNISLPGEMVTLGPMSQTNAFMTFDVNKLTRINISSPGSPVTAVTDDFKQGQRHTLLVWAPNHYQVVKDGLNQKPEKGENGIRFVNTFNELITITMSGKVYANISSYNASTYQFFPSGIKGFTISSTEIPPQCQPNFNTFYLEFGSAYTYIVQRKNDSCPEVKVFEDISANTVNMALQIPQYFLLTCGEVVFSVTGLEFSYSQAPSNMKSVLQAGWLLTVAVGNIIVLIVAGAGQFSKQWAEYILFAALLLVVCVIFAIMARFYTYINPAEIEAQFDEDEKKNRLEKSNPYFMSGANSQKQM
Protocol: To determine whether memantine is a substrate of the human OATP2B1 (OATP-B), OCT1, OCT2, OAT3, PEPT1, PEPT2 uptake transporters.
The potential for memantine to be a substrate of an uptake transporter was determined directly by comparing the uptake of memantine into cells expressing the selected uptake transporter with its uptake into control cells. Memantine was added to transporter-expressing and control cells at two concentrations (PEPT1 and PEPT2 100 and 300 µM, OCT1 and OCT2 50 and 100 µM, OATP2B1 100 and 300 µM), and incubated with cells for 2 and 20 min at 37±1°C (75 µL final incubation volume). The final concentrations of memantine were selected to be the IC50 of reporter substrate transport inhibition established in the indirect transporter assay and one order of magnitude lower. Incubations were carried out as described in the indirect uptake transporter assays. The concentration of memantine was determined by LC-MS/MS.

[2] = test system: Alzheimer's disease patients; conditions: cited from earlier work
rat AD model = conditions: cited from earlier work

SMILES: CC12CC3CC(C)(C1)CC(N)(C3)C2 [memantine]
- CREB phosphorylation deficit (YAC128 mice; YAC128 mice, 1 mg/kg in drinking water for 2 months, age 4 months): reversed the deficit in CREB phosphorylation
- rotarod learning task (YAC128 mice; YAC128 mice, 1 mg/kg in drinking water for 2 months): improvement in a rotarod learning task
- motor performance and neuropathology compared to vehicle-treated mice (YAC128 mice; YAC128 mice, high-dose (30 mg/kg)): worsened motor performance and neuropathology
- HTT aggregate formation and TCP-1 expression levels (YAC128 mice; YAC128 mice, high-dose): decrease HTT aggregate formation and TCP-1 expression levels
- striatal levels of Rhes protein (YAC128 mice; YAC128 mice, low-dose (not high-dose)): decreased striatal levels of Rhes protein
- neuropathology and motor deficits (YAC128 mice; aged (12 months) YAC128 mice, low-dose): rescue neuropathology as well as motor deficits
- microsomal CLint at 1 μM [1]: < 13.9 µL/min/mg
- Highest Fold Activation (human PEPT1; PEPT1, 100µM, 20 min): 1.1 (100µM, 20 min)
- Accumulation in transporter transfected cells (human PEPT1; 2 min, 100 µM): 1073 pmol/mg
- Accumulation in transporter transfected cells (human PEPT1; 2 min, 300 µM): 2290 pmol/mg
- Accumulation in transporter transfected cells (human PEPT1; 20 min, 100 µM): 1087 pmol/mg
- Accumulation in transporter transfected cells (human PEPT1; 20 min, 300 µM): 1682 pmol/mg
- substrate of PEPT1 uptake transporter (human PEPT1; no preferential accumulation in transfected over parental cells): not a substrate
- Accumulation in parental cells (human PEPT1; 2 min, 100 µM): 969 pmol/mg
- Accumulation in parental cells (human PEPT1; 2 min, 300 µM): 2389 pmol/mg
- Accumulation in parental cells (human PEPT1; 20 min, 100 µM): 981 pmol/mg
- Accumulation in parental cells (human PEPT1; 20 min, 300 µM): 1614 pmol/mg
- efficacy in dementia patients ([2]; 10 mg single daily dose for 12 weeks): demonstrated efficacy
- efficacy in moderate to severe AD ([2]; humans, 10 mg twice daily, 6-month study): efficacious
- cognition (rat AD model): improved cognition
- neuroprotection (rat AD model): elicited neuroprotective effects

— PMC3269340, “Pharmacokinetics of memantine in rats and mice” (PLoS Currents, 2012)
